For one assay, the system named is worms. More on the design: method as in PMID 7016122. Particulars: previous studies; cited from earlier work.
Another assay concerns SmTGR. Details: method as in PMID 17579510. The following applies: read-out: IC50 documented in the literature; cited from earlier work.
The target of assay [1] is T1, Thioredoxin glutathione reductase from S. mansoni (SmTGR) (Schistosoma mansoni, UniProt Q962Y6).
T1 construct: made in house
T1 sequence (Q962Y6 1-598): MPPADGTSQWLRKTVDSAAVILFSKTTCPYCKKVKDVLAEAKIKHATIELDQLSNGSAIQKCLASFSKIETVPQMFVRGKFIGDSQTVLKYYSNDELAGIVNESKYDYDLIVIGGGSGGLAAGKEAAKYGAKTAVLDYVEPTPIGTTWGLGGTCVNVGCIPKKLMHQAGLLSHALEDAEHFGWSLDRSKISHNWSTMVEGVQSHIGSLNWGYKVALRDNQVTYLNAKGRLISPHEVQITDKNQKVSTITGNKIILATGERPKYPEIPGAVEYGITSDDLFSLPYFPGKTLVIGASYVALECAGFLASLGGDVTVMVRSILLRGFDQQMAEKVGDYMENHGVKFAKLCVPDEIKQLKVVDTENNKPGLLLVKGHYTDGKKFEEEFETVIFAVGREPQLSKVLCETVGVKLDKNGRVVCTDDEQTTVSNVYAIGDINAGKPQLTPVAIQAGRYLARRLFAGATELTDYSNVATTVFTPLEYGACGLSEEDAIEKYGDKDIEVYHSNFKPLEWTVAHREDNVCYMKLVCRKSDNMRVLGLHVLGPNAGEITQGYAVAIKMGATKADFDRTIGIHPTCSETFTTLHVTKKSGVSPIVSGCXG
Briefly: Endpoint SmTGR fluorescence (ThioGlo) assay. It counts as biochemical. The protocol:
SmTGR protein (1.58 μg/ml) was loaded into each well of black 384-well plates (PerkinElmer, Boston, MA, USA) containing 19 μl of assay buffer I (90 mM Tris-HCl, 10 mM EDTA, pH 7.5, 100 μM NADPH, and 0.48 mg/ml BSA), followed by an addition of 1 μl positive control or test compounds. The plates were sealed and incubated for 50 min at room temperature. […] Following a 1 h incubation, the product was reacted with 30 μl ThioGlo® 1 reagent for 20–30 min, and the fluorescence signal was monitored at an excitation wavelength of 380 nm and an emission wavelength of 515 nm on the EnVision plate reader (PerkinElmer).
An HTS effort was carried out against the compound library described above. […]
Data were analyzed using GraphPad Prism® software (GraphPad, San Diego, CA, USA). […]
Recombinant SmTGR was expressed and purified as previously described. An earlier assay of the coupled activities of SmTGR and peroxiredoxin-2 [13] was adapted to study the activity of SmTGR alone, using the following principle: SmTGR converts NADPH and GSSG to NADP^+ and reduced glutathione (GSH), and GSH production can be detected with ThioGlo®, a maleimide derivative of the naphthopyranone fluorophore which fluoresces upon reacting with free thiol groups such as those present in GSH. […] After ten additional minutes, samples were excited at […] and read for fluorescence at 515 nM.

`O=C(C1CCCCC1)N1CC(=O)N2CCc3ccccc3C2C1` (stereo not shown) [PZQ, praziquantel]: in the assay on worms, the Worm-killing activity concentration was 0.3 to 1 µM.
Regarding `O=C1C=CC(=O)c2c(O)ccc(O)c21` [naphthazarin, Naphthazarin], the IC50 with SmTGR is 10 µM; in assay [1], 1.42 ± 0.08 µM. In assay [1] (read-out: Inhibition of SmTGR), the inhibition at 30 µM amounted to 100%.

The values above are taken from publication PMC4560900, “High-throughput screening against thioredoxin glutathione reductase identifies novel inhibitors with potential therapeutic value for schistosomiasis” (Infectious Diseases of Poverty, 2015).
